According to paper PMC12384620, “Hit-to-Lead Studies of Pyrazinylpiperazines against Visceral Leishmaniasis: Pharmacokinetic Profile and In Vivo Efficacy of Potent Compounds against Leishmania infantum” (ACS Pharmacology & Translational Science, 2025):
In brackets after ≈: the same amount, converted by molar mass. Like-named read-outs stand apart in the source and are kept apart here.

Key:
[1] = tested on: L. infantum::tdTomato; assay type: in vivo, mouse; conditions: for parasitemia reduction in the spleen / parasitemia reduction in the liver: 20 dpi, vs untreated control
Protocol: BALB/c mice (male, 6 to 8 weeks old, 18 to 20 g) were inoculated intravenously (tail vein) with 2 × 10^7 late-log-phase L. infantum promastigotes from Li::tdTomato lines, and randomly assigned into one of the four treatment groups (six mice per group). After 7 days of infection, […] was administered intraperitoneally in a single dose 500 mg/kg/day meglumine antimoniate (Glucantime, Sanofi Medley), both groups treated with 2 received two daily intraperitoneal injections totaling either 50 mg/kg/day or 100 mg/kg/day of 2, and the control group was administered the vehicle solution. For the intraperitoneal injection, 2 was formulated as follows: a stock solution of 2 in DMSO (100 mg/mL) was prepared daily, and a solution of 70% PBS1X, 20% PEG 400 (Polyethylene Glycol 400, Sigma-Aldrich), 0.16% Tween 80 and 10% of 2 (from the stock solution) was prepared. The control group was also administered this solution, replacing 2 with 10% DMSO. All mice were euthanized 3 days after the end of the treatment, and the liver and spleen of each animal were collected.
The number of viable parasites in each organ was determined using a quantitative limiting dilution assay. Briefly, the organs were macerated using an Ultra-Turrax disperser (IKA-Werke GmbH & Co. KG., Staufen, Germany), and a tissue homogenate was obtained with 1 mL of M199 medium. Each tissue homogenate was sequentially diluted (10-fold) in 96-well flat-bottom microtiter black plates and incubated at 26 °C for 10 days. The wells containing motile promastigotes were identified with an inverted microscope (Axiovert 25, Zeiss), and the parasite burden was determined from the highest dilution at which promastigotes had grown after 10 days of incubation.

[2] = Kinetic solubility; assay type: physicochemical; conditions: PBS, 25 °C, kinetic from dmso stock
Protocol: The analysis was performed using LC-MS/MS (liquid chromatography-tandem mass spectrometry). The LC-MS/MS system used consisted of a Prominence UFLC (Shimadzu Corporation, Kyoto, Japan) chromatography system, interfaced with a LCMS-8045 triple quadrupole mass spectrometer (Shimadzu Corporation, Kyoto, Japan) equipped with an electrospray ionization source (ESI).
PBS pH 7.4 or 2.0 (final concentration of 250 μM) was added to each well of the plates, and the DMSO concentration was kept lower than 2.5%. The plates were sealed and shaken for 24 h (200 rpm/25 °C). The precipitates on the incubation plate were removed by centrifugation (15 min/3000 rpm/25 °C), and the supernatant fractions were quantified by LC-MS/MS. An intermediate standard solution diluted at 0.5 mM in acetonitrile:water (1:1) was prepared from a 10 mM standard solution. A calibration curve was prepared for each of the test compounds and controls by diluting several times the intermediate standard solution to reach the desired concentrations of 50, 40, 20, 2, and 1 μM. The resulting equation for the calibration curve (y = mx + b) was used to calculate the experimental concentration values for the compounds. The chromatogram for analysis was achieved on a Supelco Ascentis express C18 column (3 cm x 2.1 mm, […]), using water +0.05% formic acid (A) and acetonitrile +0.05% formic acid (B) as mobile phases. […]

[3] = tested on: L. infantum promastigotes; test: Reactive oxygen species production assay (H2DCFDA); assay type: cell-based, Leishmania infantum; conditions: at IC50 against promastigotes, 24 h; standard 100 μM H2O2
Protocol: The fluorescent dye H2DCFDA was employed to evaluate ROS production. […] After treatment, the parasites were harvested, washed three times with 1 × PBS, and incubated with 10 μM H2DCFDA dye in […] of 1 × PBS in the dark at room temperature for 30 min. Subsequently, the cells were centrifugated, resuspended in ice-cold PBS and kept at 0 °C until reading on a SpectraMax Gemini XPS/EM microplate reader. The median fluorescence intensity (MIF) was measured on a population of at least ten thousand cells and the data was further analyzed using Excel 2021.

[4] = Hepatotoxicity in HepG2 cells (MTS); assay type: cell-based; conditions: human, read-out: CC50 against HepG2 cells
Protocol: HepG2 cells were seeded at 2 × 10^4 cells/mL in DMEM, the plates were incubated for 24 h (5% CO2, 37 °C) and the compounds and doxorubicin (used as a positive control) were added in serial dilutions. After 72 h incubation, 15 μL of MTS reagent (CellTiter96) was added to each well, and the plates were incubated for 4 h then read using a microplate absorbance reader at 490 nm. Growth inhibition was expressed as a percentage of the absorbance of the negative control wells.

[5] = tested on: L. braziliensis DHODH; test: DHODH inhibition assay (DCIP); assay type: biochemical, Leishmania braziliensis; conditions: 100 μM
Protocol: The inhibition assay was conducted under the following conditions: 50 mM Tris (pH 8.15), 150 mM KCl, 50 μM DHO, 60 μM DCIP, and 0.1% Triton X-100. 2 was assayed in triplicate at a concentration of 100 μM, using 5% (v/v) DMSO to prepare stock solutions. The reaction was initiated by adding the enzyme, reaching a final enzyme concentration of 165 nM. Enzymatic activity was then measured for 60 s at 610 nm using a microplate reader (SpectraMax Plus 384, Molecular Devices, San Jose, CA, USA) at 25 °C. The uninhibited reaction, containing 5% (v/v) DMSO, was used as a positive control (100% activity).

[6] = tested on: L. infantum promastigotes; test: Antileishmanial activity against promastigotes (MTS); assay type: cell-based; conditions: Leishmania infantum, 72 h
Protocol: L. infantum promastigotes (MHOM/MA/67/ITMAP-263) were cultured in complete Schneider medium (SigmaAldrich, St. Louis, MO, USA), which consisted of Schneider medium plus 10% heat-inactivated fetal bovine serum (FBS, SigmaAldrich) pH 7.4, at 24 °C. The L. infantum promastigotes were plated at a concentration of 10^5 parasites/mL, and 2 was added at concentrations of 64, 32, 16, 8, 4, 2, 1, 0.5, 0.25, and 0.125 μM. The cells were cultured for 72 h and, after the incubation time, cell proliferation was measured by colorimetric MTS assay. The cells in each well were stained with 20 μL of MTS (Promega, G3580) for 3 h, and the OD at 490 nm was determined with a microplate reader. All experiments were independently repeated at least three times.

[7] = tested on: THP-1 cells; set-up: method as in SAR previously reported; conditions: ref SAR previously reported; cited from earlier work

SMILES | parasitemia reduction in the spleen ([1]; 50 mg/kg/day i.p., 10 days) [%] | parasitemia reduction in the liver ([1]; 50 mg/kg/day i.p., 10 days, not significant) [%] | parasitemia reduction in the liver ([1]; 100 mg/kg/day i.p., 10 days) [%] | parasitemia reduction in the spleen ([1]; 100 mg/kg/day i.p., 10 days) [%] | parasitemia reduction ([1]; 100 mg/kg/day, 7-day treatment (as printed in the conclusion)) | death among treated mice ([1]; 50 and 100 mg/kg/day i.p., 10 days) | external signs of acute toxicity during and after treatment ([1]; 50 and 100 mg/kg/day i.p., 10 days, infected BALB/c mice) | solubility kinetic at 24 h ([2]; aqueous buffer, pH 2.0) [µM] | solubility kinetic at 24 h ([2]; pH 7.4, aqueous buffer) [µM] | ROS production [3] | CC50 at 72 h [4] [µM] | inhibition of DHODH [5] | IC50 [6] [µM] | CC50 [7] [µM]
O=C(c1ccc(O)cc1)N1CCN(c2cnccn2)CC1 [Compound 2, (4-Hydroxyphenyl)(4-(pyrazin-2-yl)piperazin-1-yl)methanone] | 80.0 | 44.4 | 90.0 | 91.1 | over 90% | No death | No external signs of acute toxicity | 125 (≈ 35.6 µg/mL) | > 153 | comparable to that of the standard H2O2 | > 64 | less than 25% | 7.93 | –
O=C(c1ccc(O)c(Cl)c1)N1CCN(c2cnccn2)CC1 [Compound 1, (3-Chloro-4-hydroxyphenyl)(4-(pyrazin-2-yl)piperazin-1-yl)methanone] | – | – | – | – | – | – | – | – | – | – | – | – | – | 542
